From patent publication US5591757A, “Dihydropyridine composition” (Yamanouchi Pharmaceutical Co., Ltd., priority 1984, dated 1997) come the findings set out here.

Assay [1] has as its target T1, Beta-adrenoceptor (Rattus norvegicus, UniProt P18090). Briefly: Intrinsic sympathomimetic activity (ISA) in reserpinized rats. Format: in vivo, male Wistar rats. Further details: The rats were anesthetized with pentobarbital sodium; from tissue; host or cells: heart in the living anesthetized male Wistar rat (reserpine-pretreated, vagotomized). As to conditions: reserpine-pretreated rats, iv. The protocol:
(§1) The rats were pretreated with reserpine (8 mg/kg ip), 18 hr before experiments. […] The heart rate was measured with a cardiotachometer triggered by the QRS of the ECG (lead II) and recorded on a polygraph. After the Control response to isoproterenol at a dose of 0.1 μg/kg iv was obtained, the test compound was injected iv in increasing doses at 20 min intervals.
In this series of experiments, intrinsic sympathomimetic activity (ISA) was also evaluated.

The subject of assay [2] is mean arterial blood pressure (MBP) and coronary blood flow (Cor. BF). Briefly: Hemodynamic effects in anesthetized open-chest dogs (i.v.). Format: in vivo, mongrel dogs. The settings on record: Canis lupus familiaris, anesthetized dogs; for change in vivo at 0.1 mg/kg: 0.1 mg/kg iv; for change in vivo at 0.3 mg/kg: 0.3 mg/kg iv; for change in vivo at 1 mg/kg: 1.0 mg/kg iv; for change in vivo at 0.03 mg/kg: 0.03 mg/kg iv. The protocol: Mongrel dogs of either sex were anesthetized with pentobarbital sodium (30 mg/kg iv). The animals were artificially ventilated with room air. The chest was opened at the left 4th intercostal space. Mean arterial blood pressure (MBP), heart rate (HR), left ventricular pressure (LVP), max. dLVP/dt, mean pulmonary arterial blood pressure (MPAP), cardiac output (CO) and coronary blood flow (Cor. BF) were measured. The test compounds were injected into the femoral vein. […] BF from control values induced by intravenous injection of test compounds.

Assay [3] has as its target T1, Beta-adrenoceptor. Briefly: Beta-adrenoceptor blocking effect in reserpinized rats (isoproterenol chronotropy). Further details: The rats were anesthetized with pentobarbital sodium; from tissue; host or cells: heart in the living anesthetized male Wistar rat (reserpine-pretreated, vagotomized). Format: in vivo, male Wistar rats. As to conditions: isoproterenol 0.1 μg/kg iv, cumulative iv doses, read-out: Beta-Blocking ED50 (50% blockade of positive chronotropic response to isoproterenol). The protocol: as §1

A further assay has as its system left coronary artery. Briefly: Coronary vasodilating effects in dogs (intracoronary). It counts as in vivo, mongrel dogs. The settings on record: for Duration of action of coronary vasodilating effect: intracoronary (ia). The protocol:
Mongrel dogs of either sex were anesthetized and ventilated as previously described. A thoracotomy was performed at the 4th intercostal space. Following an intravenous injection of heprin (1000 units/kg), blood from the distal end of the cannulated carotid artery was pumped into circumflex branch of the left coronary artery using a servocontrolled peristaltic pump which maintained a constant perfusion pressure of 120 mmHg by means of a pump controller. An electromagnetic flow probe was inserted in the circit to record blood flow through the cannulated coronary artery. The test compounds were administered directly into the rubber tubing connected close to the coronary artery cannula.

Setting [4] is: read-out: percent change of Cor. BF from control.
Where [5] appears, read: read-out: percent change of MBP from control.

Structures are written as SMILES. Where a name gives a salt, the structure may show the parent alone. Read-outs that look alike come from different tables or passages of the source.

T1 sequence (P18090 whole entry): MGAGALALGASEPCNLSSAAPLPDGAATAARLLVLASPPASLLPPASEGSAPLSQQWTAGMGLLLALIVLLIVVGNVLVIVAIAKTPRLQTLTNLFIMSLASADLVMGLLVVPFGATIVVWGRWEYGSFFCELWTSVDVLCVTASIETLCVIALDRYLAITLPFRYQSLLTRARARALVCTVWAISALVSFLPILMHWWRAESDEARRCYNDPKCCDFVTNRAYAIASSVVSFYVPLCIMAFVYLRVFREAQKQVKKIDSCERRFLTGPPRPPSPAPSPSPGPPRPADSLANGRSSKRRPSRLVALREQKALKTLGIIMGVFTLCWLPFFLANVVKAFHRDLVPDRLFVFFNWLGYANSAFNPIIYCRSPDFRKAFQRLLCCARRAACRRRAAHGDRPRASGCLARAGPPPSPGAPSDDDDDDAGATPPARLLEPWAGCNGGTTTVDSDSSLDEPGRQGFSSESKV

The ED50 is the dose that gives a 50% effect, or the effect in half of the subjects. Take `COC(=O)C1=C(C)NC(C)=C(C(=O)OCCCCCCNCC(O)COc2ccccc2Cl)C1c1cccc([N+](=O)[O-])c1` (stereo not drawn) [Example 32, 6-[3-(o-chlorophenoxy)-2-hydroxypropylamino]hexyl methyl 2,6-dimethyl-4-(m-nitrophenyl)-1,4-dihyrdopyridine-3,5-dicarboxylate hydrochloride]: the “ISA (increase in HR)” value at Beta-adrenoceptor [1] is given as “-”. In addition, in assay [2] (setting [4]), the change in vivo at 0.1 mg/kg was found to be 35% and the change in vivo at 0.3 mg/kg stood at 93%. Further, in assay [2] (setting [5]), the change in vivo at 0.1 mg/kg is -18% and the change in vivo at 0.3 mg/kg was -36%. Further, the ED50 at Beta-adrenoceptor [3] turned out to be 1.18 mg/kg.

Turning to `COC(=O)C1=C(C)NC(C)=C(C(=O)OCCCCCCNCC(O)COc2ccccc2)C1c1cccc(C)c1.Cl` (stereo not drawn) [Example 48, 6-(2-hydroxy-3-phenoxypropylamino)hexyl methyl 2,6-dimethyl-4-(m-methylphenyl)-1,4-dihydro-pyridine-3,5-dicarboxylate hydrochloride], the “ISA (increase in HR)” value on Beta-adrenoceptor [1] is listed as “-”. In assay [2] (setting [4]), the change in vivo at 0.3 mg/kg is 71% and the change in vivo at 1 mg/kg is 92%. In addition, in assay [2] (setting [5]), the change in vivo at 0.3 mg/kg is -20% and the change in vivo at 1 mg/kg was -43%. Moreover, at Beta-adrenoceptor [3], the ED50 was found to be 0.68 mg/kg. For the same compound, in the assay with left coronary artery, the “ED100 pap (dose for 100% increase of Cor. BF; maximum response to papaverine 300 μg ia = 100%)” value is reported as 76 μg ia and the “Duration of action of coronary vasodilating effect” value (shortened to “Duration”) turned out to be 60 min.

Turning to `COC(=O)C1=C(C)NC(C)=C(C(=O)OCCCCCCNCC(O)COc2ccccc2)C1c1ccccc1[N+](=O)[O-]` (stereo not drawn) [Example 41, 6-(2-hydroxy-3-phenoxypropylamino)hexyl methyl 2,6-dimethyl-4-(o-nitrophenyl)-1,4-dihydropyridine-3,5-dicarboxylate], on Beta-adrenoceptor [1], the “ISA (increase in HR)” value was “+++ (an increase in HR by above 30 beats/min)”. Further, the change in vivo at 0.3 mg/kg in assay [2] (setting [4]) is 45%. Also, the change in vivo at 0.3 mg/kg in assay [2] (setting [5]) was -34%. Besides, on Beta-adrenoceptor [3], the ED50 is 0.58 mg/kg. Also, in the assay on left coronary artery, the “ED100 pap (dose for 100% increase of Cor. BF; maximum response to papaverine 300 μg ia = 100%)” value is on record as 43 μg ia and the “Duration” value was > 60 min.

With `COC(=O)C1=C(C)NC(C)=C(C(=O)OCCCCCCNCC(O)COc2ccccc2)C1c1cccc(C(F)(F)F)c1` (stereo not drawn) [Example 7, 6-(2-hydroxy-3-phenoxypropylamino)hexyl methyl 2,6-dimethyl-4-(m-trifluoromethylphenyl)-1,4-dihydropyridin-3,5-dicarboxylate], the “ISA (increase in HR)” value at Beta-adrenoceptor [1] is “-”. Further, the change in vivo at 1 mg/kg in assay [2] (setting [4]) was found to be 24%. Moreover, in assay [2] (setting [5]), the change in vivo at 1 mg/kg was -20%. Moreover, the 50% effective dose (ED50) on Beta-adrenoceptor [3] was 1.93 mg/kg. In addition, in the assay with left coronary artery, the “ED100 pap (dose for 100% increase of Cor. BF; maximum response to papaverine 300 μg ia = 100%)” value was 100 μg ia and the “Duration” value is listed as > 60 min.

Regarding `COC(=O)C1=C(C)NC(C)=C(C(=O)OCCCCCCNCC(O)COc2ccccc2)C1c1ccccc1OC.Cl` (stereo not drawn) [Example 47, 6-(2-hydroxy-3-phenoxypropylamino)hexyl methyl 2,6-dimethyl-4-(o-methoxyphenyl)-1,4-dihydropyridine-3,5-dicarboxylate hydrochloride], the “ISA (increase in HR)” value at Beta-adrenoceptor [1] is recorded as “+++ (an increase in HR by above 30 beats/min)”. Besides, in assay [2] (setting [4]), the change in vivo at 0.3 mg/kg came out at 30% and the change in vivo at 1 mg/kg amounted to 57%. In assay [2] (setting [5]), the change in vivo at 0.3 mg/kg is -34% and the change in vivo at 1 mg/kg is -44%. Further, the ED50 at Beta-adrenoceptor [3] stood at 0.11 mg/kg. In the assay on left coronary artery, the “ED100 pap (dose for 100% increase of Cor. BF; maximum response to papaverine 300 μg ia = 100%)” value was found to be 245 μg ia and the “Duration” value is > 60 min.

Turning to `COC(=O)C1=C(C)NC(C)=C(C(=O)OCCCCCCNCC(O)COc2ccccc2)C1c1cccc(OC)c1` (stereo not drawn) [Example 46, 6-(2-hydroxy-3-phenoxypropylamino)hexyl methyl 2,6-dimethyl-4-(m-methoxyphenyl)-1,4-dihyrdopyridine-3,5-dicarboxylate hydrochloride], at Beta-adrenoceptor [1], the “ISA (increase in HR)” value is reported as “+ (an increase in HR by 10 to 19 beats/min was observed)”. In addition, in assay [2] (setting [4]), the change in vivo at 0.3 mg/kg stood at 36% and the change in vivo at 1 mg/kg turned out to be 78%. Also, in assay [2] (setting [5]), the change in vivo at 0.3 mg/kg is -21% and the change in vivo at 1 mg/kg is -45%. Besides, on Beta-adrenoceptor [3], the ED50 was 0.66 mg/kg. Further, in the assay on left coronary artery, the “ED100 pap (dose for 100% increase of Cor. BF; maximum response to papaverine 300 μg ia = 100%)” value stood at 98 μg ia and the “Duration” value is > 60 min.

Regarding `COC(=O)C1=C(C)NC(C)=C(C(=O)OCCCCNCC(O)COc2ccccc2)C1c1cccc([N+](=O)[O-])c1.Cl` (stereo not drawn) [Example 11, 4-(2-hydroxy-3-phenoxy-propylamino)butyl methyl 2,6-dimethyl-4-(m-nitro-phenyl)-1,4-dihydropyridine-3,5-dicarboxylate hydrochloride], the “ISA (increase in HR)” value on Beta-adrenoceptor [1] is “++ (an increase in HR by 20 to 29 beats/min was observed)”. In assay [2] (setting [4]), the change in vivo at 0.1 mg/kg came out at 35% and the change in vivo at 1 mg/kg was 193%. Besides, in assay [2] (setting [5]), the change in vivo at 0.1 mg/kg is -16% and the change in vivo at 1 mg/kg was -41%. Besides, on Beta-adrenoceptor [3], the 50% effective dose (ED50) worked out at 0.64 mg/kg. In addition, in the assay with left coronary artery, the “ED100 pap (dose for 100% increase of Cor. BF; maximum response to papaverine 300 μg ia = 100%)” value was 150 μg ia and the “Duration” value was 60 min.

Regarding `COC(=O)C1=C(C)NC(C)=C(C(=O)OCCCCCCNCC(O)COc2ccccc2C#N)C1c1cccc([N+](=O)[O-])c1.Cl` (stereo not drawn) [Example 30, 6-[3-(o-cyanophenoxy)-2-hydroxypropylamino]hexyl methyl 2,6-dimethyl-4-(m-nitrophenyl)-1,4-di-hydropyridine-3,5-dicarboxylate hydrochloride], the “ISA (increase in HR)” value on Beta-adrenoceptor [1] was “-”. Further, the values for the change in vivo at 0.1 mg/kg in assay [2] (setting [4]) and in assay [2] (setting [5]) were 12% and -21%, respectively. Moreover, on Beta-adrenoceptor [3], the ED50 was found to be 0.79 mg/kg.

Turning to `COC(=O)C1=C(C)NC(C)=C(C(=O)OCCCCCCCCCCNCC(O)COc2ccccc2)C1c1cccc([N+](=O)[O-])c1.Cl` (stereo not drawn) [Example 13, 10-(2-hydroxy-3-phenoxy-propylamino)decyl methyl 2,6-dimethyl-4-(m-nitro-phenyl)-1,4-dihydropyridine-3,5-dicarboxylate hydrochloride], the “ISA (increase in HR)” value at Beta-adrenoceptor [1] is listed as “+ (an increase in HR by 10 to 19 beats/min was observed)”. Also, the change in vivo at 0.03 mg/kg in assay [2] (setting [4]) amounted to 102%. Besides, in assay [2] (setting [5]), the change in vivo at 0.03 mg/kg was -21%. For the same compound, the median effective dose (ED50) on Beta-adrenoceptor [3] came to 0.72 mg/kg. For the same compound, in the assay with left coronary artery, the “ED100 pap (dose for 100% increase of Cor. BF; maximum response to papaverine 300 μg ia = 100%)” value came to 12 μg ia and the “Duration” value was 60 min.

For `CC1=C(C(=O)OCCCCCCNCC(O)COc2ccccc2)C(c2cccc([N+](=O)[O-])c2)C(C(=O)OC(C)(C)C)=C(C)N1.Cl` (stereo not drawn) [Example 21, tert-butyl 6-(2-hydroxy-3-phenoxypropylamino)hexyl 2,6-dimethyl-4-(m-nitrophenyl)-1,4-dihydropyridine-3,5-dicarboxylate hydrochloride], the “ISA (increase in HR)” value on Beta-adrenoceptor [1] is “+ (an increase in HR by 10 to 19 beats/min was observed)”. Further, the change in vivo at 1 mg/kg in assay [2] (setting [4]) turned out to be 34%. In assay [2] (setting [5]), the change in vivo at 1 mg/kg is -28%. Also, on Beta-adrenoceptor [3], the median effective dose (ED50) came out at 1.01 mg/kg. Besides, in the assay on left coronary artery, the “ED100 pap (dose for 100% increase of Cor. BF; maximum response to papaverine 300 μg ia = 100%)” value is recorded as 137 μg ia and the “Duration” value turned out to be 60 min.

Turning to `COC(=O)C1=C(C)NC(C)=C(C(=O)OCCCCCCNCC(O)COc2ccccc2)C1c1cccc(Cl)c1.Cl` (stereo not drawn) [Example 43, 6-(2-hydroxy-3-phenoxypropylamino)hexyl methyl 4-(m-chlorophenyl)-2,6-dimethyl-1,4-dihydro-pyridine-3,5-dicarboxylate hydrochloride], the “ISA (increase in HR)” value on Beta-adrenoceptor [1] is recorded as “-”. For the same compound, the change in vivo at 0.3 mg/kg in assay [2] (setting [4]) is 44%; in assay [2] (setting [5]) it was -22%. Moreover, the ED50 on Beta-adrenoceptor [3] came out at 0.87 mg/kg. Moreover, in the assay on left coronary artery, the “ED100 pap (dose for 100% increase of Cor. BF; maximum response to papaverine 300 μg ia = 100%)” value was 56 μg ia. The “Duration” value with left coronary artery is > 60 min.
